Key:
[1] = pH-dependent 1D FTIR / 2D IR spectroscopy of KP1212 in aqueous solutions (pKa); format: physicochemical; settings: aqueous (D2O) solutions, pH* varied from 1.6 to 13.9; 1D and/or 2D IR spectroscopy, 25° C.
Experimental: FIGS. 1A to 1E. FIG. 1A: pH-dependent (Fourier transform infrared) FTIR spectra of KP1212 from pH* 1.6 (red or thin solid line) to 13.9 (blue or thick solid line) at 25° C. FIG. 1B: populations of protonated, neutral, and deprotonated KP1212 as a function of pH* obtained from the first three components of singular value decomposition (SVD) analysis. The solid lines show fits of the Henderson-Hasselbalch equation with pKa1 and pKa2. FIGS. 1C to 1E: SVD reconstructed IR spectra representative for the protonated (FIG. 1C), neutral (FIG. 1D), and deprotonated (FIG. 1E) KP1212. The grey curves, labeled A, in FIG. 1C and FIG. 1D are the experimental FTIR spectra of 1-(1′,4′-cyclohexadienyl)-2-methylaminopropane (CMP) at pH* 1.6 and 7.4, respectively. The pH* is the pH measured in D2O, as measured with a pH meter. The FTIR experiments were run in D2O.
An in vitro assay has been developed that allowed the measurement of the mutation type and rate of KP1212 at different pH values, and the mutagenic properties of KP1212 have been evaluated at pH 6-8. […] By simply changing the pH of a composition (e.g., a bodily fluid or aqueous solution) containing KP1212 to 5.9, KP1212 achieves its optimal mutagenicity of about 50%.
For both 1D FTIR and 2D IR experiments, the H/D exchanged KP1212 was dissolved at a concentration of 20 mg/ml (88 mM) in 0.5 M phosphate buffer pD (pH reading in D2O) 7.9. […]

[2] = test system: M13 single-stranded genomes, containing one KP1212 base at a specific site; experiment: primer extension at various pHs on M13 genome containing KP1212, PCR and REAP assay (mutagenesis); format: biochemical
Experimental: The method of evaluating the mutagenicity of a compound allows for analyzing the product of a primer extension reaction (by itself a trivial reaction, even if run at different pHs) with the REAP method (this method was published in Delaney, J. C. & Essigmann, J. M., Methods Enzymol. 408, 1-15 (2006)). The methods involve a custom primer, of the form 5′-B-A-3′ and the following protocol. The A sequence is the actual primer for the extension reaction, and by itself has a low (about 37° C.) melting temperature. […] Its melting temperature is high, at about 70° C. The template of the primer extension reaction is an M13 genome containing at a specific site a modified base (or nucleoside analog). After the primer extension reaction, a PCR reaction is run using two primers; primer 1 is the forward primer used in the REAP method (or a primer annealing on the M13 genome upstream of the lesion site); primer 2 is exactly the sequence B. This method guarantees that only the primer extension product will be PCR amplified, and amplification will not depend on the yield of the primer extension reaction. Therefore, this method allows to detect and analyze mutagenic consequences (including rare events) of nucleoside analogs in a variety of conditions, where the type of polymerase, pH, ionic strength, salt concentration, and inhibitors can be varied over a large range of possibilities.
The M13 single-stranded genomes, containing one KP1212 base at a specific site were constructed and purified as previously reported (Li, Fedeles, Singh, Peng et al, 2014, Tautomerism provides a molecular explanation for the mutagenic properties of the anti-HIV nucleoside 5-aza-5,6-dihydro-2′-deoxycytidine, Proc. Natl. Acad. Sci. U.S.A. 111, E3252-3259). […]
The PCR products were subsequently purified and analyzed with the REAP assay as previously described (Li, Fedeles, Singh, Peng et al, 2014, Tautomerism provides a molecular explanation for the mutagenic properties of the anti-HIV nucleoside 5-aza-5,6-dihydro-2′-deoxycytidine. Proc. Natl. Acad. Sci. U.S.A. 111, E3252-3259). […]

[3] = test system: single-stranded vector containing a single KP1212; experiment: in vitro and in vivo replication of a single-stranded vector containing a single KP1212
Description: Mutagenic nucleoside analogs may act through lethal mutagenesis. Lethal mutagenesis is a strategy whereby the innate immune system or mutagenic pool nucleotides increase the error rate of viral replication above the error catastrophe limit. Lethal mutagenesis can also increase the mutation rate of the DNA and/or RNA of cancer cells (e.g., cancer cells with a mutator phenotype) to over the error catastrophe limit and thus show genotoxicity and/or mitochondrial toxicity against the cancer cells. Lethal mutagenesis is proposed as a mechanism for several anti-viral compounds, including Ribavirin, which is useful for treating RS virus infection (RSV) and KP1212, a dihydro base which causes A to G and G to A mutations in HIV. […] The mutagenic properties of KP1212 were determined empirically by in vitro and in vivo replication of a single-stranded vector containing a single KP1212. […] A model is proposed that correlates the mutagenicity of KP1212 with its tautomeric distribution in solution. When incorporated into HIV DNA by RT, KP1212 allows DNA synthesis to continue. However, the modified base of KP1212 is able to tautomerize and base-pair alternately with guanine and adenine. […] Variable temperature (VT) nuclear magnetic resonance (NMR) techniques have allowed the identification of compounds capable of multiple tautomerism.

HIV = settings: Phase I and II; active form of the pro-drug KP1461; cited from earlier work

**Q.** With `NC1=NC(=O)N([C@H]2C[C@H](O)[C@@H](CO)O2)CN1` [KP1212, 5-aza-5,6-dihydro-2′-deoxycytidine] as the molecule, how does the pKa [1] read?
**A.** ~7

**Q.** And the mutagenesis ([2]; at pH 5.9)?
**A.** about 50%

**Q.** What about the mutagenesis ([2]; at pH 8) of the same molecule?
**A.** about 10%

**Q.** What about the “C-to-T mutations in dependence on pH” value ([2]; pH 5.5-8.5) of the same molecule?
**A.** more C-to-T mutations as the pH decreases

**Q.** What about the mutagenicity [3] of the same molecule?
**A.** 10%

**Q.** And the C-to-T mutations ([3]; in vivo, when present in a template strand)?
**A.** about 10%

**Q.** And the “paired with adenine, share of the time” value ([3]; under physiological conditions)?
**A.** about 10%

**Q.** What about the “paired with guanine, share of the time” value ([3]; under physiological conditions) of the same molecule?
**A.** approximately 90%

**Q.** What about the “safety in clinical trials” value (HIV) of the same molecule?
**A.** safe

Source: patent US9714265B2, “Mutagenic nucleoside analogs and uses thereof” (Massachusetts Institute of Technology, priority 2015, dated 2017)
